Test results taken from ChEMBL document CHEMBL1201862, “PubChem BioAssay data set” (2004).
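Values below derive from 48-hour exposures of cells grown in 96-well plates, with endpoints linearly interpolated between the two concentrations bracketing the appropriate inhibition level. GI50: concentration for 50% inhibition of growth.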 Active and inactive are the calls of the source. Cut-off read from the data, not from the text of the source: active = GI50 up to about 1.1 µM and inactive = higher.

Experiments:
Assay in all cases: inhibition of tumour cell growth, NCI panel, 48 h
A549 = system: A549
ACHN = system: ACHN
COLO 205 = system: COLO 205
DU-145 = system: DU-145
IGROV-1 = system: IGROV-1
M14 = system: M14
MCF7 = system: MCF7
MDA-MB-435 = system: MDA-MB-435
MOLT-4 = system: MOLT-4
Malme-3M = system: Malme-3M
OVCAR-4 = system: OVCAR-4
OVCAR-5 = system: OVCAR-5
RPMI-8226 = system: RPMI-8226
RXF 393 = system: RXF 393
SF-295 = system: SF-295
SF-539 = system: SF-539
SK-MEL-28 = system: SK-MEL-28
SK-OV-3 = system: SK-OV-3
TK-10 = system: TK-10

Measured: GI50

O=C1N[C@@H]2c3c(Br)sc(Br)c3C(=O)[C@@H]2N1
inactive: A549 12.6 µM | ACHN 4.02 µM | COLO 205 3.78 µM | DU-145 5.86 µM | IGROV-1 2.26 µM | M14 3.82 µM | MCF7 2.62 µM | MDA-MB-435 2.1 µM | MOLT-4 2.76 µM | Malme-3M 4.52 µM | OVCAR-4 3.94 µM | OVCAR-5 17.2 µM | RPMI-8226 3.05 µM | RXF 393 4.94 µM | SF-295 15.5 µM | SF-539 2.52 µM | SK-MEL-28 3.78 µM | SK-OV-3 14.1 µM | TK-10 2.24 µM

CCn1c(SCC(=O)NNC(=S)NC)nc2ccccc2c1=O
inactive: A549 88.9 µM | ACHN > 100 µM | COLO 205 > 100 µM | DU-145 > 100 µM | IGROV-1 > 100 µM | M14 > 100 µM | MCF7 > 100 µM | MDA-MB-435 > 100 µM | MOLT-4 > 100 µM | Malme-3M > 100 µM | OVCAR-4 76.4 µM | OVCAR-5 > 100 µM | RPMI-8226 53 µM | RXF 393 34 µM | SF-295 > 100 µM | SF-539 > 100 µM | SK-MEL-28 > 100 µM | SK-OV-3 > 100 µM | TK-10 49 µM

O=C(C1OC1c1ccc(O)cc1)C12CC3CC(CC(C3)C1)C2 (configuration not stated)
inactive: A549 95.3 µM | ACHN 42 µM | COLO 205 29.5 µM | DU-145 > 100 µM | IGROV-1 > 86.1 µM | M14 > 64.3 µM | MCF7 > 55.3 µM | MDA-MB-435 > 40.7 µM | MOLT-4 17.8 µM | Malme-3M 45.1 µM | OVCAR-4 51.3 µM | OVCAR-5 > 100 µM | RPMI-8226 27 µM | RXF 393 > 78.3 µM | SF-295 > 88.9 µM | SF-539 45 µM | SK-MEL-28 > 100 µM | SK-OV-3 > 100 µM | TK-10 58.3 µM

c1ccc(-c2cc(-c3cc(-c4ccccc4)no3)on2)cc1
inactive: A549 53.2 µM | ACHN 29.3 µM | COLO 205 45.6 µM | DU-145 > 100 µM | IGROV-1 35.2 µM | M14 > 100 µM | MCF7 > 100 µM | MDA-MB-435 > 100 µM | MOLT-4 25.2 µM | Malme-3M > 100 µM | OVCAR-4 19.4 µM | OVCAR-5 > 100 µM | RPMI-8226 > 100 µM | RXF 393 67.1 µM | SF-295 53.8 µM | SF-539 15.1 µM | SK-MEL-28 > 100 µM | SK-OV-3 28.6 µM | TK-10 > 100 µM

COc1cc(/N=N/c2cccc(S(N)(=O)=O)c2)c2ccccc2c1N
inactive: A549 14 µM | ACHN 15.5 µM | COLO 205 13 µM | DU-145 1.9 µM | IGROV-1 10.3 µM | M14 1.91 µM | MCF7 6.84 µM | MDA-MB-435 2 µM | MOLT-4 5.65 µM | Malme-3M 1.7 µM | OVCAR-4 13.4 µM | OVCAR-5 17.5 µM | RPMI-8226 16.3 µM | RXF 393 15.7 µM | SF-295 10.5 µM | SF-539 3.05 µM | SK-MEL-28 7.11 µM | SK-OV-3 15.6 µM | TK-10 16.1 µM

O=C(O)CCC(=O)c1ccc2sc3ccccc3c2c1
inactive: A549 > 100 µM | ACHN > 100 µM | COLO 205 > 100 µM | DU-145 > 100 µM | IGROV-1 > 100 µM | M14 > 100 µM | MCF7 > 100 µM | MDA-MB-435 > 100 µM | MOLT-4 > 100 µM | Malme-3M > 100 µM | OVCAR-4 > 100 µM | OVCAR-5 > 100 µM | RPMI-8226 > 100 µM | RXF 393 > 100 µM | SF-295 > 100 µM | SF-539 > 100 µM | SK-MEL-28 > 100 µM | SK-OV-3 > 100 µM | TK-10 91.6 µM

COC(=O)CCC(C)[C@H]1CCC2C3C(C[C@H](OC(C)=O)[C@@]21C)[C@@]1(C)CCC2(C[C@H]1C[C@H]3OC(C)=O)OOC1(CCC(C(C)(C)C)CC1)OO2 (some centres not stated)
inactive: A549 7.24 µM | ACHN 5.7 µM | COLO 205 > 100 µM | DU-145 > 100 µM | IGROV-1 17.1 µM | M14 > 100 µM | MCF7 31.4 µM | MDA-MB-435 56 µM | MOLT-4 7.52 µM | Malme-3M 64.3 µM | OVCAR-4 15.6 µM | OVCAR-5 > 100 µM | RPMI-8226 3.91 µM | RXF 393 > 100 µM | SF-295 7.53 µM | SF-539 68.7 µM | SK-MEL-28 > 100 µM | SK-OV-3 > 100 µM | TK-10 17.7 µM

CC1(C)Oc2ccc(Cl)cc2C12CC2
inactive: A549 18.9 µM | ACHN 16.3 µM | COLO 205 14 µM | DU-145 15.8 µM | IGROV-1 14.7 µM | M14 18.8 µM | MCF7 16.9 µM | MDA-MB-435 15.5 µM | MOLT-4 17.1 µM | Malme-3M 23.4 µM | OVCAR-4 13.8 µM | OVCAR-5 17.4 µM | RPMI-8226 16.1 µM | RXF 393 15.6 µM | SF-295 14 µM | SF-539 31.5 µM | SK-MEL-28 17.9 µM | SK-OV-3 21.7 µM | TK-10 18.4 µM
